Data reported in publication PMC11591901 (Biomolecules, 2024).
Read-outs that look alike come from different tables or passages of the source.

Tests used:
[1] = target: Acetylcholinesterase from electric eel (eeAChE, type VI-S) (Electrophorus electricus, UniProt O42275); test: biochemical
[2] = target: T1, butyrylcholinesterase from equine serum (eqBChE, E.C. 3.1.1.8) (Equus caballus, UniProt P81908); test: biochemical
T1 construct: butyrylcholinesterase from equine serum (eqBChE, E.C. 3.1.1.8); purchased Sigma Aldrich; host or cells: equine serum

[3] = eeAChE, Ellman assay, triplicate
[4] = eqBChE, Ellman assay, triplicate

T1 sequence (P81908 whole entry): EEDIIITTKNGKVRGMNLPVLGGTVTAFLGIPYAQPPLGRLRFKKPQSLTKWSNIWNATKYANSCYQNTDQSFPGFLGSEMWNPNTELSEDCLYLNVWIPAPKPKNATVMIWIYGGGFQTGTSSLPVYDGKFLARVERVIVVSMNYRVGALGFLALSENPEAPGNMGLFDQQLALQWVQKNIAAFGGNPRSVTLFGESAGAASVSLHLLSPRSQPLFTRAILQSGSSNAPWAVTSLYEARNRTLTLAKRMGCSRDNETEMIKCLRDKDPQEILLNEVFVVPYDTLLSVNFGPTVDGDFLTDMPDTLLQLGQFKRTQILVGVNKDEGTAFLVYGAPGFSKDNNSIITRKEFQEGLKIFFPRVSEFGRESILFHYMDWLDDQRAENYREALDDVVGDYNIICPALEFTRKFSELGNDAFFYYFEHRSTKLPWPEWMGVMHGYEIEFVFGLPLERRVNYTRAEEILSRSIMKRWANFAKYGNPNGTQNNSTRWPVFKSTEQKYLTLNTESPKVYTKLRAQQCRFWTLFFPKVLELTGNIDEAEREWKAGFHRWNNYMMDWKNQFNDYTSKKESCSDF
Acetylcholinesterase from electric eel (eeAChE, type VI-S), sequence (O42275 24-633): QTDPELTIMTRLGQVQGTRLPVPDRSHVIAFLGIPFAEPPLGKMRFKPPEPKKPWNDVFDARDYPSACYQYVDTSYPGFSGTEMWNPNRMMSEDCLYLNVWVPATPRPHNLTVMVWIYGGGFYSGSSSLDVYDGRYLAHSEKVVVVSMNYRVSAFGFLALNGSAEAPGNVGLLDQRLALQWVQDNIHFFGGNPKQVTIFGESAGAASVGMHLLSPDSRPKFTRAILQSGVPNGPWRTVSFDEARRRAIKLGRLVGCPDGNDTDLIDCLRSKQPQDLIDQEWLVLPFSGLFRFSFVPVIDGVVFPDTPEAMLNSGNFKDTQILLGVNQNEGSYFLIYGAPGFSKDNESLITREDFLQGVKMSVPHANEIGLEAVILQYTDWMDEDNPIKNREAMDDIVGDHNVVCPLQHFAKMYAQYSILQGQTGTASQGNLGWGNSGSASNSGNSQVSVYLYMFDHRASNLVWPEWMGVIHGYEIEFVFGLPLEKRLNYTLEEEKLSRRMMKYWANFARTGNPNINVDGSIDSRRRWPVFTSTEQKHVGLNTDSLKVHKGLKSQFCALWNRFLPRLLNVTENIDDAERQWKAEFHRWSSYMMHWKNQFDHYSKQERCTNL

| SMILES | IC50 [1, 3] | IC50 [2, 4] | IC50 [1] | IC50 [2] |
| --- | --- | --- | --- | --- |
| Cc1ccc(Cn2nnc3ccc4sccc4c32)cc1 [Compound 14, 1-(4-methylbenzyl)-1H-thieno [3’,2’:3,4]benzo [1,2-d][1,2,3]triazole] | 117 µM | 24.3 µM | – | – |
| Clc1ccc(Cn2nnc3ccc4sccc4c32)cc1 [Compound 15, 1-(4-chlorobenzyl)-1H-thieno [3’,2’:3,4]benzo [1,2-d][1,2,3]triazole] | 77 µM | 34.6 µM | – | – |
| Cc1cccc(Cn2nnc3ccc4sccc4c32)c1 [Compound 16, 1-(3-methylbenzyl)-1H-thieno [3’,2’:3,4]benzo [1,2-d][1,2,3]triazole] | 77.1 µM | 2.9 µM | – | – |
| Cc1ccc(Cn2nnc3ccc4sc(C)cc4c32)cc1 [Compound 17, 7-methyl-1-(4-methylbenzyl)-1H-thieno [3’,2’:3,4]benzo [1,2-d][1,2,3]triazole] | > 250 µM | 57.6 µM | – | – |
| Cc1cc2c(ccc3nnn(Cc4ccc(Cl)cc4)c32)s1 [Compound 18, 1-(4-chlorobenzyl)-7-methyl-1H-thieno [3’,2’:3,4]benzo [1,2-d][1,2,3]triazole] | > 100 µM | 59 µM | – | – |
| Cc1cccc(Cn2nnc3ccc4sc(C)cc4c32)c1 [Compound 19, 7-methyl-1-(3-methylbenzyl)-1H-thieno [3’,2’:3,4]benzo [1,2-d][1,2,3]triazole] | > 250 µM | 70.3 µM | – | – |
| COc1cccc(Cn2nnc3ccc4sc(C)cc4c32)c1 [Compound 20, 1-(3-methoxybenzyl)-7-methyl-1H-thieno [3’,2’:3,4]benzo [1,2-d][1,2,3]triazole] | 186 µM | 90.2 µM | – | – |
| Cc1cc2c(ccc3nnn(Cc4cccc(F)c4)c32)s1 [Compound 21, 1-(3-fluorobenzyl)-7-methyl-1H-thieno [3’,2’:3,4]benzo [1,2-d][1,2,3]triazole] | 465 µM | 172 µM | – | – |
| Cc1ccc(Cn2n[n+](C)c3ccc4sccc4c32)cc1 [Compound 22, 3-methyl-1-(4-methylbenzyl)-1H-thieno [3’,2’:3,4]benzo [1,2-d][1,2,3]triazol-3-ium] | – | – | 39.2 µM | 1 µM |
| C[n+]1nn(Cc2ccc(Cl)cc2)c2c3ccsc3ccc21 [Compound 23, 1-(4-chlorobenzyl)-3-methyl-1H-thieno [3’,2’:3,4]benzo [1,2-d][1,2,3]triazol-3-ium] | – | – | 4.4 µM | 0.47 µM |
| Cc1cccc(Cn2n[n+](C)c3ccc4sccc4c32)c1 [Compound 24, 3-methyl-1-(3-methylbenzyl)-1H-thieno [3’,2’:3,4]benzo [1,2-d][1,2,3]triazol-3-ium] | 55.1 µM | 7 µM | – | – |
| Cc1ccc(Cn2n[n+](C)c3ccc4sc(C)cc4c32)cc1 [Compound 25, 3,7-dimethyl-1-(4-methylbenzyl)-1H-thieno [3’,2’:3,4]benzo [1,2-d][1,2,3]triazol-3-ium] | – | – | 211 µM | 102 µM |
| Cc1cc2c(ccc3c2n(Cc2ccc(Cl)cc2)n[n+]3C)s1 [Compound 26, 1-(4-chlorobenzyl)-3,7-dimethyl-1H-thieno [3’,2’:3,4]benzo [1,2-d][1,2,3]triazol-3-ium] | 8.1 µM | 13.4 µM | – | – |
| Cc1cccc(Cn2n[n+](C)c3ccc4sc(C)cc4c32)c1 [Compound 27, 3,7-dimethyl-1-(3-methylbenzyl)-1H-thieno [3’,2’:3,4]benzo [1,2-d][1,2,3]triazol-3-ium] | 8.3 µM | 9.7 µM | – | – |
| COc1cccc(Cn2n[n+](C)c3ccc4sc(C)cc4c32)c1 [Compound 28, 1-(3-methoxybenzyl)-3,7-dimethyl-1H-thieno [3’,2’:3,4]benzo [1,2-d][1,2,3]triazol-3-ium] | 54.8 µM | 10.6 µM | – | – |
| C[n+]1nn(Cc2cccc(Cl)c2)c2c3ccsc3ccc21 [Compound 30, 1-(3-chlorobenzyl)-3-methyl-1H-thieno [3’,2’:3,4]benzo [1,2-d][1,2,3]triazol-3-ium] | – | – | 12.2 µM | 2.7 µM |
| C[n+]1nn(Cc2ccco2)c2c3ccsc3ccc21 [Compound 31, 1-(furan-2-ylmethyl)-3-methyl-1H-thieno [3’,2’:3,4]benzo [1,2-d][1,2,3]triazol-3-ium] | 157 µM | 16.1 µM | – | – |
